The source of these data is publication PMC8617944, “Preclinical Pharmacokinetics and Acute Toxicity in Rats of 5-{[(2E)-3-Bromo-3-carboxyprop-2-enoyl]amino}-2-hydroxybenzoic Acid: A Novel 5-Aminosalicylic Acid Derivative with Potent Anti-Inflammatory Activity” (Molecules, 2021).

On the set-up of series [1]: method as in ref 32, 33 = [32]; doi:10.1016/j.arabjc.2016.12.026; 32. Cabrera Pérez L.C. Gutiérrez Sánchez M. Mendieta Wejebe J.E. Hernández Rodríguez M. Fragoso Vázquez M.J. Salazar J.R. Correa Basurto J. Padilla Martínez I.I. Rosales Hernández M.C. Novel 5-aminosa || [33]; 33. Correa Basurto J. Rosales Hernández M.C. Mendieta Wejebe J.E. Trujillo Ferrara J.G. Padilla Martínez I.I. Ramírez Durán L.A. Alemán González Duhart D. Síntesis de un derivado del ácido 5-aminosali. As to conditions: 0.408 mM; cited from earlier work.

A short description of series [2]: Stability of stock solutions. The conditions noted are these: 1000 μg/mL in acetonitrile-methanol (50:50, v/v), 2–4 °C. Type of series: physicochemical. The method, then: Six stock solutions at 1000 μg/mL of C1 were prepared by dissolving 10 mg in a mixture of acetonitrile-methanol (50:50, v/v), adjusting the volume in a volumetric flask of 10 mL and storing the final solution at 2–4 °C. […] Calibration standards were prepared daily from the stock solution at concentrations of 0.1, 0.5, 1, 5, 10, 50, and 100 μg/mL, and calibration curves were constructed in triplicate by plotting known concentrations of the standard versus the detector response area (File S4).

Series [3] is described as follows: Plasma protein binding assay (ultrafiltration, RP-HPLC). Type of series: in vitro ADME, Wistar rats. The conditions noted are these: rat plasma. How it is done: Different quantities of C1 stock solution at 10 mg/mL were spiked into 600 µL of freshly obtained blank rat plasma to give a final concentration of 1, 5, 10, and 20 µg/mL. The resulting samples were incubated at 37 °C for 4 h. After incubation, an aliquot of 100 µL was removed to determine the total concentration, and another aliquot of 500 µL was transferred to a 10 kD cut-off ultrafiltration device (Millipore Corporation, Burlington, MA, USA). Subsequently, samples were centrifuged at 2000× g and 37 °C for 2 h. The free drug concentration of C1 was measured by evaluating 100 µL of ultrafiltrate with RP-HPLC, interpolating the main areas of the samples into a standard curve constructed with known amounts of C1. The percentage of protein binding was calculated with the following formula (1). Protein binding ratio (%) = […](1)

As usually defined, the fraction unbound is the share of the substance not bound to proteins or other matrix.

For `O=C(/C=C(/Br)C(=O)O)Nc1ccc(O)c(C(=O)O)c1` [Compound C1, 5-{[(2E)-3-bromo-3-carboxyprop-2-enoyl]amino}-2-hydroxybenzoic acid], the “reduction of the free radical DPPH” value in series [1] was “about 90%”. The “stability of stock solutions” value in series [2] is reported as “stable for three months”. Also, the fraction unbound at 4 h, 1 µg/mL in series [3] (Wistar, 1 µg/mL, read-out: Percentage of Unbound Fraction ± SD (%)) worked out at 0.963 ± 0.014. For the same molecule, the fraction unbound at 4 h, 5 µg/mL in series [3] (Wistar, 5 µg/mL, read-out: Percentage of Unbound Fraction ± SD (%)) came out at 0.942 ± 0.024. The fraction unbound at 4 h, 10 µg/mL in series [3] (Wistar, 10 µg/mL, read-out: Percentage of Unbound Fraction ± SD (%)) was determined as 0.934 ± 0.015. Further, the free fraction (fraction unbound) at 4 h, 20 µg/mL in series [3] (Wistar, 20 µg/mL, read-out: Percentage of Unbound Fraction ± SD (%)) came to 0.948 ± 0.023. The molecule also yielded a fraction unbound at 4 h in series [3] (Wistar, 1 to 20 μg/mL) of 0.934 to 0.963. Further, the “Percentage of Bound Fraction ± SD (%)” value was 3.7 ± 1.1% in series [3] (1 µg/mL), 5.8 ± 2.4% in series [3] (5 µg/mL), 6.6 ± 1.5% in series [3] (10 µg/mL) and 5.2 ± 2.3% in series [3] (20 µg/mL).
